These are literature values, as cited in PubChem BioAssay AID1259409 (Chemical Carcinogenesis Research Information System (CCRIS), 2018).

The data set concerns rodent chemically induced tumor inhibition, incidence and multiplicity. As to the kind of experiment: CCRIS tumor inhibitor studies.

Consider `Clc1ccc(-c2cc(Cl)c(Cl)c(Cl)c2)cc1Cl`, for which the “tumour outcome (control, treated, inhibition, significance)” value was 93%, 93%, 0%, not significant (Carcinogen: 7,12-DIMETHYLBENZ[A]ANTHRACENE, 57-97-6, Dose [Inhibitor]: 0, 2.5 NG/KG BW ADMINISTERED INTRAGASTRICALLY TO MOTHERS ON DAYS 13 TO 19 POST-CONCEPTION (STUDY DURATION: 178 D), Route [Inhibitor]: IN UTERO, ORAL, Species: RAT, Strain/Sex: SD/FEMALE, Target Tissue: Type of Lesion: MAMMARY GLAND: TUMOR, Dose [Carcinogen]: 20 MG/KG BW ADMINISTERED TO 50-DAY OLD OFFSPRING); 93%, 78%, 17%, p<0.05 (Carcinogen: 7,12-DIMETHYLBENZ[A]ANTHRACENE, 57-97-6, Dose [Inhibitor]: 0, 7.5 UG/KG BW ADMINISTERED INTRAGASTRICALLY TO MOTHERS ON DAYS 13 TO 19 POST-CONCEPTION (STUDY DURATION: 178 D), Route [Inhibitor]: IN UTERO, ORAL, Species: RAT, Strain/Sex: SD/FEMALE, Target Tissue: Type of Lesion: MAMMARY GLAND: TUMOR, Dose [Carcinogen]: 20 MG/KG BW ADMINISTERED TO 50-DAY OLD OFFSPRING); 93%, 96%, -3%, not significant (Carcinogen: 7,12-DIMETHYLBENZ[A]ANTHRACENE, 57-97-6, Dose [Inhibitor]: 0, 250 NG/KG BW ADMINISTERED INTRAGASTRICALLY TO MOTHERS ON DAYS 13 TO 19 POST-CONCEPTION (STUDY DURATION: 178 D), Route [Inhibitor]: IN UTERO, ORAL, Species: RAT, Strain/Sex: SD/FEMALE, Target Tissue: Type of Lesion: MAMMARY GLAND: TUMOR, Dose [Carcinogen]: 20 MG/KG BW ADMINISTERED TO 50-DAY OLD OFFSPRING).

Take `CC(=O)OCC(=O)[C@H]1CC[C@H]2[C@@H]3CCC4=CC(=O)CC[C@]4(C)[C@H]3CC[C@]12C`: the “tumour outcome (control, treated, inhibition, significance)” value was 14/14 (100%), 13/13 (100%), 0%, not significant (Carcinogen: 1,2-DIMETHYLHYDRAZINE DIHYDROCHLORIDE, 306-37-6, Dose [Inhibitor]: 0, 10 MG/KG IN PEANUT OIL ON DAYS 1 AND 3 OF STUDY THEN 1/WK FOR 30 WK (STUDY DURATION: 31 WK), Route [Inhibitor]: SUBCUTANEOUS, Species: RAT, Strain/Sex: SPRAGUE-DAWLEY/MALE, Target Tissue: Type of Lesion: COLON: ADENOCARCINOMA, Dose [Carcinogen]: 9 MG/KG 1/WK FOR 7 WK THEN 19.4 MG/KG 1/WK FOR 13 WK, Promoter: NONE USED) and 13/14 (93%), 9/13 (69%), 26%, not significant (Carcinogen: 1,2-DIMETHYLHYDRAZINE DIHYDROCHLORIDE, 306-37-6, Dose [Inhibitor]: 0, 10 MG/KG IN PEANUT OIL ON DAYS 1 AND 3 OF STUDY THEN 1/WK FOR 30 WK (STUDY DURATION: 31 WK), Route [Inhibitor]: SUBCUTANEOUS, Species: RAT, Strain/Sex: SPRAGUE-DAWLEY/MALE, Target Tissue: Type of Lesion: SMALL INTESTINE: ADENOCARCINOMA, Dose [Carcinogen]: 9 MG/KG 1/WK FOR 7 WK THEN 19.4 MG/KG 1/WK FOR 13 WK, Promoter: NONE USED).

On to `O=C(O)/C=C/C(=O)O`, for which the “tumour outcome (control, treated, inhibition, significance)” value (Carcinogen: 3'-METHYL-4-DIMETHYLAMINOAZOBENZENE, 55-80-1, Dose [Inhibitor]: 1% IN DIET AND 0.025% IN DRINKING WATER CONCOMITANTLY FOR 51 WK STARTING AT COMPLETION OF CARCINOGEN TREATMENT (STUDY DU, Route [Inhibitor]: ORAL, Species: RAT, Strain/Sex: DONRYU/MALE, Target Tissue: Type of Lesion: LIVER: CARCINOMA, Dose [Carcinogen]: 0.06% IN DIET FOR 50 D, Promoter: NONE USED) is on record as 11/13 (85%), 2/15 (13%), 85%, p<0.0002; the “tumour outcome (control, treated, inhibition, significance)” value (Carcinogen: 4-(METHYLNITROSAMINO)-1-(3-PYRIDYL)-1-BUTANONE [64091-50-5], Dose [Inhibitor]: 80 MMOL/KG IN DIET FOR 17 WK BEGINNING 1 WK PRIOR TO FIRST CARCINOGEN DOSE (STUDY DURATION: 17 WK), Route [Inhibitor]: ORAL, Species: MOUSE, Strain/Sex: A/J/FEMALE, Target Tissue: Type of Lesion: LUNG: ADENOMA, Dose [Carcinogen]: 10 UMOL ONCE 1 WK POST FIRST INHIBITOR DOSE (STUDY DURATION: 17 WK), Promoter: NONE) is reported as 100%, 100%, 0%, not significant; the “tumour outcome (control, treated, inhibition, significance)” value (Carcinogen: 4-(METHYLNITROSAMINO)-1-(3-PYRIDYL)-1-BUTANONE [64091-50-5], Dose [Inhibitor]: 80 MMOL/KG IN DIET FOR 53 WK BEGINNING 1 WK PRIOR TO FIRST CARCINOGEN DOSE (STUDY DURATION: 53 WK), Route [Inhibitor]: ORAL, Species: MOUSE, Strain/Sex: A/J/FEMALE, Target Tissue: Type of Lesion: LUNG: ADENOMA OR ADENOCARCINOMA, Dose [Carcinogen]: 10 UMOL ONCE 1 WK POST FIRST INHIBITOR DOSE (STUDY DURATION: 53 WK), Promoter: NONE) is 100%, 97%, 3%, not significant; the “tumour outcome (control, treated, inhibition, significance)” value (Carcinogen: 4-(METHYLNITROSAMINO)-1-(3-PYRIDYL)-1-BUTANONE [64091-50-5], Dose [Inhibitor]: 160 MMOL/KG IN DIET FOR 17 WK BEGINNING 1 WK PRIOR TO FIRST CARCINOGEN DOSE (STUDY DURATION: 17 WK), Route [Inhibitor]: ORAL, Species: MOUSE, Strain/Sex: A/J/FEMALE, Target Tissue: Type of Lesion: LUNG: ADENOMA, Dose [Carcinogen]: 10 UMOL ONCE 1 WK POST FIRST INHIBITOR DOSE (STUDY DURATION: 17 WK), Promoter: NONE) is 100%, 100%, 0%, not significant; the “tumour outcome (control, treated, inhibition, significance)” value (Carcinogen: 4-(METHYLNITROSAMINO)-1-(3-PYRIDYL)-1-BUTANONE [64091-50-5], Dose [Inhibitor]: 160 MMOL/KG IN DIET FOR 53 WK BEGINNING 1 WK PRIOR TO FIRST CARCINOGEN DOSE (STUDY DURATION: 53 WK), Route [Inhibitor]: ORAL, Species: MOUSE, Strain/Sex: A/J/FEMALE, Target Tissue: Type of Lesion: LUNG: ADENOMA OR ADENOCARCINOMA, Dose [Carcinogen]: 10 UMOL ONCE 1 WK POST FIRST INHIBITOR DOSE (STUDY DURATION: 53 WK), Promoter: NONE) was 100%, 97%, 3%, not significant; the “tumour outcome (control, treated, inhibition, significance)” value (Carcinogen: POTASSIUM 1-METHYL-7-[2-(5-NITRO-2-FURYL)VINYL]-4-OXO-1,4-DIHYDRO-1,8- NAPHTHYRIDINE-3-CARBOXYLATE, 29676-95-7, Dose [Inhibitor]: 1% IN DIET FOR 39 WK STARTING AT COMPLETION OF CARCINOGEN TREATMENT (STUDY DURATION: 53 WK), Route [Inhibitor]: ORAL, Species: MOUSE, Strain/Sex: ICR/MALE, Target Tissue: Type of Lesion: FORESTOMACH: SQUAMOUS CELL CARCINOMA, Dose [Carcinogen]: 0.012% DIET FOR 14 WK, Promoter: NONE USED) is 7/30 (23%), 1/32 (3%), 87%, p<0.05. In addition, the “tumour outcome (control, treated, inhibition, significance)” value is 13/30 (43%), 0/32 (0%), 100%, not significant (Carcinogen: POTASSIUM 1-METHYL-7-[2-(5-NITRO-2-FURYL)VINYL]-4-OXO-1,4-DIHYDRO-1,8- NAPHTHYRIDINE-3-CARBOXYLATE, 29676-95-7, Dose [Inhibitor]: 1% IN DIET FOR 39 WK STARTING AT COMPLETION OF CARCINOGEN TREATMENT (STUDY DURATION: 53 WK), Route [Inhibitor]: ORAL, Species: MOUSE, Strain/Sex: ICR/MALE, Target Tissue: Type of Lesion: FORESTOMACH: SQUAMOUS CELL PAPILLOMA, Dose [Carcinogen]: 0.012% IN DIET FOR 14 WK, Promoter: NONE USED); 2/30 (7%), 11/32 (34%), -386%, not significant (Carcinogen: POTASSIUM 1-METHYL-7-[2-(5-NITRO-2-FURYL)VINYL]-4-OXO-1,4-DIHYDRO-1,8- NAPHTHYRIDINE-3-CARBOXYLATE, 29676-95-7, Dose [Inhibitor]: 1% IN DIET FOR 39 WK STARTING AT COMPLETION OF CARCINOGEN TREATMENT (STUDY DURATION: 53 WK), Route [Inhibitor]: ORAL, Species: MOUSE, Strain/Sex: ICR/MALE, Target Tissue: Type of Lesion: LUNG: ADENOCARCINOMA, Dose [Carcinogen]: 0.012% IN DIET FOR 14 WK, Promoter: NONE USED); 27/30 (90%), 0/32 (0%), 100%, p<0.01 (Carcinogen: POTASSIUM 1-METHYL-7-[2-(5-NITRO-2-FURYL)VINYL]-4-OXO-1,4-DIHYDRO-1,8- NAPHTHYRIDINE-3-CARBOXYLATE, 29676-95-7, Dose [Inhibitor]: 1% IN DIET FOR 39 WK STARTING AT COMPLETION OF CARCINOGEN TREATMENT (STUDY DURATION: 53 WK), Route [Inhibitor]: ORAL, Species: MOUSE, Strain/Sex: ICR/MALE, Target Tissue: Type of Lesion: LUNG: PAPILLOTUBULAR ADENOCARCINOMA, Dose [Carcinogen]: 0.012% IN DIET FOR 14 WK, Promoter: NONE USED); 11/24 (46%), 0/15 (0%), 100%, p<0.01 (Carcinogen: THIOACETAMIDE, 62-55-5, Dose [Inhibitor]: 1% IN DIET FOR 48 WK GIVEN POST CARCINOGEN (STUDY DURATION: 88 WK), Route [Inhibitor]: ORAL, Species: MOUSE, Strain/Sex: ICR/MALE, Target Tissue: Type of Lesion: LIVER: HEPATOCELLULAR CARCINOMA, Dose [Carcinogen]: 0.035% IN DIET FOR 40 WK, Promoter: NONE USED).
